In series [1] the test system is total insulin and C-peptide. The experiment in a line: Fasting total insulin and C-peptide in 52-week clinical study. The class given is in vivo, patients. As to conditions: for C-Peptide, Adjusted Mean Change From Baseline (SE) / Total Insulin, Adjusted Mean Change From Baseline (SE) / C-Peptide, Adjusted Mean Difference From Glyburide / Total Insulin, Adjusted Mean Difference From Glyburide: ITT, Week 52; for C-Peptide, Adjusted Mean Difference From Glyburide / Total Insulin, Adjusted Mean Difference From Glyburide: *p ≤ 0.05. As to the method: This was a 12-month, double-blind, randomized, parallel-group, active-control, multicenter study design (FIG. 1). […] Secondary efficacy parameters included markers of glycemic homeostasis (insulin and C-peptide) and markers of lipid metabolism (total cholesterol, total triglycerides, HDL, VLDL, LDL (measured), free fatty acids, Lp(a), Apo A1, and Apo B). Efficacy analysis was performed on 2 patient populations, intent-to-treat and completers. […] Patients withdrawing from the study before Week 52 were included in the analysis using the LOCF procedure; the last measurement on treatment was substituted for the missing Week 52 measurement. The intent-to-treat patient sample was the primary sample for assessing efficacy. Completers comprised patients in the intent-to-treat sample who completed Week 52. The analysis of change from baseline to Week 52 was performed using analysis of covariance (ANCOVA). The primary model included effects due to treatment and center and baseline as covariate. Treatment-by-baseline and treatment-by-center interactions were also examined in supplemental models.

A short description of series [2]: Body weight in clinical study. The class given is in vivo, patients. As to conditions: Month 12; for Body weight, Adjusted Mean Change From Baseline (SE): ITT; for mean decrease in body weight from baseline: monotherapy (troglitazone: range over doses). The text has this: This was a 12-month, double-blind, randomized, parallel-group, active-control, multicenter study design (FIG. 1). […] Patients were instructed to fast overnight prior to visits requiring specimen collection.

Series [3] can be described thus: Safety: adverse events and clinical laboratory measurements. The class given is in vivo, patients. The procedure: A complete physical examination and ECG were performed during screening and at the end of the study. Clinical laboratory parameters and vital signs including blood pressure were monitored throughout the study for safety reasons. Adverse events were recorded during clinic visits and evaluated by the investigator for intensity and relationship to study drug. Reduction in the daily dose of micronized glyburide could occur in cases of documented hypoglycemia.
All patients randomized to treatment were included in all safety evaluations.
Hypoglycemia, defined as an FSG <50 mg/dL (verified laboratory value), was to be recorded as an adverse event.
Adverse events that were treatment emergent (not present at baseline) are summarized in the following section using a modified COSTART dictionary. If, however, an adverse event present at baseline increased in intensity or frequency during treatment, the event was included in the summaries. Each patient reporting an adverse event was counted only once for that event regardless of the number of times the adverse event was reported. Associated adverse events were those considered by the investigator to be possibly, probably, or definitely related to study therapy.
Baseline clinical laboratory parameters were compared with values at the end of the study (last visit) to identify any abnormal trends. The percent of patients with increases or decreases in laboratory values were calculated based on the number of patients at risk for changes outside of the reference range; i.e., patients with low or high values at baseline were not considered at risk for a decrease or increase, respectively.
Laboratory results were then reviewed for these particular patients to determine which patients actually had clinically important changes in a given laboratory parameter.

Series [4] concerns non-insulin dependent diabetes mellitus (NIDDM). The experiment in a line: Patient disposition (withdrawal, completion). The class given is in vivo, patients. The text has this: This was a 12-month, double-blind, randomized, parallel-group, active-control, multicenter study design (FIG. 1). […] Patients could withdraw voluntarily at any time during the study or be withdrawn by the investigator because of significant adverse events or deterioration in health, poor compliance, pregnancy, or prolonged symptomatic hyperglycemia or persistent worsening or failure to improve glycemic control as monitored by FSG.

For series [5], the system named is postprandial glucose tolerance. The series is described as follows: 2-hour meal tolerance test (postprandial glucose, insulin, C-peptide AUC). As to conditions: Month 12, vs glyburide, p ≤0.05; all combination doses and 600 mg troglitazone monotherapy. The class given is in vivo, patients.
Procedure: The effect of treatment on the pattern of postprandial glucose tolerance (standard 2-hour meal tolerance test) was determined in a subset of patients.
A 2-hour meal tolerance test to assess postprandial glucose and insulin excursions in response to a premeasured meal (breakfast) was conducted in a subset of patients at baseline, Week 24, and at the end of treatment. […] Additional parameters included total insulin and C-peptide. Analyses of the meal tolerance parameters were based on observations at the end of treatment; observations from Week 24 were not carried forward.
Summary statistics for glucose, insulin, and C-peptide levels every 30 minutes for 2 hours were provided at baseline, and Months 6 and 12.
The change from baseline in each response variable was compared between treatment groups using analysis of covariance. The analysis included all patients who had baseline and Month 12 test data. The primary model included effects due to treatment and center and baseline as covariate. The 95% confidence interval for the treatment difference based on the primary model was provided for each pairwise comparison of treatment groups.
Meal tolerance testing was performed in a subset of patients at baseline and at Months 6 and 12. Postprandial glucose, insulin, and C-peptide levels were determined at 30, 60, 90, and 120 minutes after a standard meal (Sustacal HC) (Table 13).
Series [6] in a line: Trough plasma concentrations of troglitazone. The class given is in vivo, patients. The settings on record: Week 12; for concentration at 2016 h: human, plasma, po, alone or + glyburide, read-out: Mean (% RSD) Trough Plasma Concentration of Troglitazone. As to the method:
Trough plasma concentrations of troglitazone were determined at Week 12. Blood samples (7 mL) were collected in heparinized glass tubes. Following centrifugation, plasma samples were transferred to plastic tubes and stored at -20° C. until assayed. Plasma samples were assayed at Corning Hazleton, Inc., PO Box 7545, Madison, Wis., 53707, using a validated liquid chromatographic method with electrochemical detection. The minimum quantitation limit for troglitazone was 5 ng/mL. Concentrations below the limit of quantitation were reported as zero. The analysts remained blinded to the treatment randomization code during sample analysis.

The conditions of series [7]: patients studied to date; cited from earlier work.
The mark [8] stands for this setting: glyburide monotherapy (active control).
Where [9] appears, read: troglitazone 200 mg, or 200 mg/12 mg in combination.
Setting [10] is: troglitazone 400 mg, or 400 mg/12 mg in combination.
Where [11] appears, read: troglitazone 600 mg, or 600 mg/12 mg in combination.
Where [12] appears, read: Week 52, compared with glyburide.

Values joined by “and” are separate entries in the source; they are usually repeats but may differ in a detail not shown here. Equal entries are not always repeated. “Also recorded” adds a separate entry of the source. Where two headings read alike, the source gives them in different places.

For `COc1ccc(Cl)cc1C(=O)NCCc1ccc(S(=O)(=O)NC(=O)NC2CCCCC2)cc1` [Glyburide], in series [1] (setting [8]), the “C-Peptide, Adjusted Mean Change From Baseline (SE)” value is reported as -0.67 (0.07) ng/mL and the “Total Insulin, Adjusted Mean Change From Baseline (SE)” value is recorded as -1.45 (1.39) μIU/mL. The “Body weight, Adjusted Mean Change From Baseline (SE)” value in series [2] (glyburide (active control)) was -1.3 lbs. Besides, the “mean decrease in body weight from baseline” value in series [2] is reported as 1 lbs. In series [3] (overall, all doses), the “associated adverse events, incidence” value is recorded as 10% and the “patients with adverse events” value is 90%. Further, in series [4] (glyburide monotherapy), the “Withdrawn, Adverse Event, Number (%) of Patients” value is on record as 6 (7.6) Number (%) of Patients; the “Withdrawn, Lack of Efficacy, Number (%) of Patients” value is listed as 20 (25.3) Number (%) of Patients; the “withdrawal for lack of efficacy” value is “Twenty-five”.

Turning to `Cc1c(C)c2c(c(C)c1O)CCC(C)(COc1ccc(CC3SC(=O)NC3=O)cc1)O2` (centres unmarked) [Troglitazone], the “C-Peptide, Adjusted Mean Change From Baseline (SE)” value was -0.96 (0.07) ng/mL in series [1] (setting [9]), -0.78 (0.07) ng/mL in series [1] (setting [10]) and -1.01 (0.08) ng/mL in series [1] (setting [11]). The “Total Insulin, Adjusted Mean Change From Baseline (SE)” value is reported as -8.41 (1.39) μIU/mL in series [1] (setting [9]), -5.90 (1.40) μIU/mL in series [1] (setting [10]) and -11.53 (1.42) μIU/mL in series [1] (setting [11]). Also, the “C-Peptide, Adjusted Mean Difference From Glyburide” value is listed as 0.29 ng/mL in series [1] (setting [9]), -0.11 ng/mL in series [1] (setting [10]) and 0.34 ng/mL in series [1] (setting [11]). Also, the “Total Insulin, Adjusted Mean Difference From Glyburide” value is given as -6.96 μIU/mL in series [1] (setting [9]), -4.44 μIU/mL in series [1] (setting [10]) and -10.07 μIU/mL in series [1] (setting [11]). Further, in series [1] (setting [12]), the “C-peptide (result in words)” value was “Significant (p≤0.05) decreases in C-peptide were observed for troglitazone monotherapy only (200 and 600 mg troglitazone)”. In addition, the “total insulin (result in words)” value in series [1] (setting [12]) is listed as “significant (p≤0.05) decrease in total insulin compared with glyburide”. The “total insulin, completers (result in words)” value in series [1] (completers, 400 and 600 mg troglitazone, p<0.05 vs glyburide) is reported as “decreases in total insulin that were significantly different from glyburide (p<0.05)”. For the same compound, in series [5], the “mean glucose AUC(0-2 hr) (result in words)” value is “decreased significantly (p ≤0.05) compared with glyburide”. Moreover, the “Body weight, Adjusted Mean Change From Baseline (SE)” value in series [2] (troglitazone 200 mg, or 200/12 mg in combination) is on record as -6.9 lbs; in series [2] (troglitazone 400 mg, or 400/12 mg in combination) it was -3.9 lbs; in series [2] (troglitazone 600 mg, or 600/12 mg in combination), -0.8 lbs. Moreover, the “mean decrease in body weight from baseline” value in series [2] was in the range of 1 to 7 lbs. The “trough plasma troglitazone concentrations (result in words)” value in series [6] (dose dependence, mono versus combination) is on record as “Mean trough troglitazone concentrations generally increased with increasing troglitazone doses”. Further, the concentration at 2016 h in series [6] (200 mg QD) was found to be 145 ng/mL; in series [6] (400 mg QD), 238 ng/mL; in series [6] (600 mg QD), 285 ng/mL. Further, the “patients with mildly elevated liver enzymes (<3×upper normal limit) at end of study” value in series [3] (200 mg monotherapy) is “one”. Besides, in series [3] (human, in vivo), the “adverse event profile versus glyburide monotherapy (result in words)” value was “Most adverse events occurred at the lower incidence in patients treated with troglitazone monotherapy compared with the patients treated with glyburide monotherapy”. For the same compound, the “hematological parameters (result in words)” value in series [3] (human, in vivo) is “no patient experienced clinically important decreases in any hematological parameter that can be directly attributable to troglitazone”. Also, the “patients with adverse events” value in series [3] (overall, all doses) is recorded as 70%. Also, the “patients with mildly transient decreases in hemoglobin/hematocrit which returned to baseline” value in series [3] (remaining on drug, mono: two on 400 mg, one on 600 mg, combination: three on 400 mg/12 mg, one on 600 mg/12 mg) is 3 patients. Moreover, the “tolerability (result in words)” value in series [3] (throughout the study) is listed as “well-tolerated throughout the study; also recorded: well-tolerated during the study”. Further, in series [4] (200 mg troglitazone), the “withdrawal for lack of efficacy” value is ~60% and 55%. In addition, the figures for the “Withdrawn, Adverse Event, Number (%) of Patients” value in series [4] (setting [9]), in series [4] (setting [10]) and in series [4] (setting [11]) were 6 (7.7) Number (%) of Patients, 7 (8.6) Number (%) of Patients and 6 (7.7) Number (%) of Patients, respectively. Besides, the “Withdrawn, Lack of Efficacy, Number (%) of Patients” value was 43 (55.1) Number (%) of Patients in series [4] (setting [9]), 32 (39.5) Number (%) of Patients in series [4] (setting [10]) and 34 (43.6) Number (%) of Patients in series [4] (setting [11]). For the same compound, in series [7], the “hypoglycemia (result in words)” value is reported as “has not caused hypoglycemia”.

The record behind these values is patent publication US5859037A, “Sulfonylurea-glitazone combinations for diabetes” (Warner-Lambert Company, priority 1997, dated 1999).
